According to patent US7414048B2, “4,5-dihydro-isoxazole derivatives and their pharmaceutical use” (Janssen Pharmaceutica, N.V., priority 1998, dated 2008):

The compounds below were run on T cell blast formation in human blood (assay: In vitro inhibition of T cell blast formation in human blood (human whole blood blast formation, PHA stimulated, flow cytometry)). Conditions: Test Dose 1 × 10^−5 (unit not given), 72 hours, mean where multiple measurements.
Type: cell-based
Description: Cells are collected after a 72 hours culture period at 37° C., supernatant is removed by centrifugation and red blood cells are lysed by a hypotonic buffer. The remaining white blood cells are collected in PBS containing propidium iodide. The blast formation is analyzed using a benchtop flow cytometer (Cytoron, Ortho) equipped with an argon-ion laser. […] When multiple measurements were performed, a mean value was calculated for the percentage inhibition of T cell blast formation.
For Cn1nc(-c2ccc(NC(=O)C3CC(c4cccnc4)=NO3)cc2)c2ccc(F)cc21 (centres unmarked) [Compound 465], the “% Inhibition of T cell blast formation” value was 83%.
O=C(Nc1ccc(-c2noc3cc(F)ccc23)cc1)C1CC(c2cccnc2)=NO1 (centres unmarked) [Compound 466] was tested, and the “% Inhibition of T cell blast formation” value was 82%.

Same assay, conditions: Test Dose 1 × 10^−6 (unit not given), 72 hours, mean where multiple measurements
O=C(Nc1ccc(C(=NO)c2ccccn2)cc1)C1CC(c2cccnc2)=NO1 (centres unmarked) [Compound 439] was tested, and the “% Inhibition of T cell blast formation” value was 79%.
COC(C(N)=O)(c1ccccc1)c1ccc(NC(=O)C2CC(c3cccnc3)=NO2)cc1 (centres unmarked) [Compound 442] was tested, and the “% Inhibition of T cell blast formation” value was 75%.
With O=C(Nc1ccc(-c2noc(-c3ccccc3)n2)cc1)C1CC(c2cccnc2)=NO1 (centres unmarked) [Compound 452] the “% Inhibition of T cell blast formation” value was 79%.
For O=C(Nc1ccc(-c2nc(-c3ccccc3)no2)cc1)C1CC(c2cccnc2)=NO1 (centres unmarked) [Compound 453], the “% Inhibition of T cell blast formation” value was 61%.
In the case of CN1N=C(c2ccc(NC(=O)C3CC(c4cccnc4)=NO3)cc2)CC1c1ccccc1 (centres unmarked) [Compound 459], the “% Inhibition of T cell blast formation” value is reported as 77%.
In the case of O=C(Nc1ccc(-n2cnc3ccccc32)cc1)C1CC(c2cccnc2)=NO1 (centres unmarked) [Compound 464], the “% Inhibition of T cell blast formation” value is reported as 85%.
For Cc1nc2ccccc2n1-c1ccc(NC(=O)C2CC(c3cccnc3)=NO2)cc1 (centres unmarked) [Compound 467], the “% Inhibition of T cell blast formation” value was 82%.
For O=C(c1ccc(NC(=O)C2CC(c3cccnc3)=NO2)cc1)c1cccs1 (centres unmarked) [Compound 490], the “% Inhibition of T cell blast formation” value was 58%.
For CC(O)(c1ccccc1)c1ccc(NC(=O)C2CC(c3cccnc3)=NO2)cc1 (centres unmarked) [Compound 510, (B1)-4,5-dihydro-N-[4-(1-hydroxy-1-phenylethyl)phenyl]-3-(3-pyridinyl)-5-isoxazolecarboxamide], the “% Inhibition of T cell blast formation” value was 76%.
With COC(=O)OC(C#N)(c1ccccc1)c1ccc(NC(=O)C2CC(c3cccnc3)=NO2)cc1 (centres unmarked) [Compound 524] the “% Inhibition of T cell blast formation” value was 81%.

Same assay, conditions: Test Dose 1 × 10^−7 (unit not given), 72 hours, mean where multiple measurements
COc1ccc(C(=NO)c2ccc(NC(=O)C3CC(c4cccnc4)=NO3)cc2)c(OC)c1 (centres unmarked) [Compound 438] was tested, and the “% Inhibition of T cell blast formation” value was 82%.
In the case of COc1ccc(OC)c(C(=NO)c2ccc(NC(=O)C3CC(c4cccnc4)=NO3)cc2)c1 (centres unmarked) [Compound 440], the “% Inhibition of T cell blast formation” value is reported as 77%.
For O.O=C(c1ccccc1)c1ccc(NC(=O)[C@@H]2CC(c3cccnc3)=NO2)cc1 [Compound 491, (S)-N-(4-benzoylphenyl)-4,5-dihydro-3-(3-pyridinyl)-5-isoxazolecarboxamide (1:1) monohydrate], the “% Inhibition of T cell blast formation” value was 70%.

Same assay, conditions: Test Dose 3 × 10^−7 (unit not given), 72 hours, mean where multiple measurements
COc1cc(C(=NO)c2ccc(NC(=O)C3CC(c4cccnc4)=NO3)cc2)cc(OC)c1OC (centres unmarked) [Compound 436] was tested, and the “% Inhibition of T cell blast formation” value was 78%.
With COc1ccc(C(=NO)c2ccc(NC(=O)C3CC(c4cccnc4)=NO3)cc2)cc1OC (centres unmarked) [Compound 437] the “% Inhibition of T cell blast formation” value was 75%.
For O=C(Cc1ccc(NC(=O)C2CC(c3cccnc3)=NO2)cc1)Nc1ccccc1 (centres unmarked) [Compound 451], the “% Inhibition of T cell blast formation” value was 80%.
With O=C(Nc1ccc(-c2nc(-c3ccccc3)cs2)cc1)C1CC(c2cccnc2)=NO1 (centres unmarked) [Compound 454] the “% Inhibition of T cell blast formation” value was 59%.
For CN1N=C(c2ccccc2)CC1c1ccc(NC(=O)C2CC(c3cccnc3)=NO2)cc1 (centres unmarked) [Compound 457], the “% Inhibition of T cell blast formation” value was 67%.
O=C(Nc1ccc(-c2n[nH]c3cc(F)ccc23)cc1)C1CC(c2cccnc2)=NO1 (centres unmarked) [Compound 463] was tested, and the “% Inhibition of T cell blast formation” value was 33%.
In the case of CC(C)=NOC(c1ccccc1)c1ccc(NC(=O)[C@@H]2CC(c3cccnc3)=NO2)cc1 (stereo partly drawn) [Compound 504, (5S)-4,5-dihydro-N-[4-[[[(1-methylethylidene)amino]oxo]phenylmethyl]phenyl]-3-(3-pyridinyl)-5-isoxazolecarboxamide], the “% Inhibition of T cell blast formation” value is reported as 75%.
With CC(C)OC(=O)OC(c1ccccc1)c1ccc(NC(=O)[C@@H]2CC(c3cccnc3)=NO2)cc1 (some centres unmarked) [Compound 508, [5S(A)]-[4-[[[4,5-dihydro-3-(3-pyridinyl)-5-isoxazolyl]carbonyl]amino]phenyl]phenylmethyl 1-methylethyl carbonic acid (ester)] the “% Inhibition of T cell blast formation” value was 70%.
